Laboratory results reported in patent US20260062447A1, “COMPOUNDS” (UNIVERSITY OF SOUTHAMPTON, priority 2022, published 2026).
Where a SMILES comes first, the peptide text is derived from it. [ ]: non-standard residue; d: D form. Phe(4-CF3) = N[C@@H](Cc1ccc(C(F)(F)F)cc1)C(=O)O; Phe(4-Br) = N[C@@H](Cc1ccc(Br)cc1)C(=O)O; Nle = CCCC[C@H](N)C(=O)O

Key:
[1] = tested on: HIF-1α nuclear localization; experiment: HIF-1α immunofluorescence (nuclear localization); format: cell-based
Excerpt: (§1) FIG. 11—A) Structure of cyclic peptide that incorporates a coumaryl motif at the phenylalanine position CLL-Cou-VY [SEQ ID NO: 39 Cys leu leu cou val tyr]. B) MST analysis of CLL-Cou-VY. C) The peptide was seen to be internalized in HeLa cells upon visualization with PMT detection at 405 nm. […] E) HIF-1α immunofluorescence under control conditions showing that without treatment HIF-1a localizes to the nucleus.

HeLa cells = experiment: Cell internalization of the fluorescent peptide, PMT detection at 405 nm; format: cell-based
Excerpt: as §1
We therefore made a peptide with a coumaryl motif incorporated at the phenylalanine position the compound, CLL-Cou-VY, shown in FIG. 11 was seen to be internalized in HeLa cells upon visualization with PMT detection at 405 nm.

HIF-1α PAS-B domain = HIF-1α PAS-B domain (Homo sapiens, UniProt Q16665); experiment: Microscale thermophoresis (MST) binding to HIF-1α PAS-B domain; settings: for binding affinity by MST, in words: compared within the derivative series or to the unsubstituted peptide
Chain of HIF-1α PAS-B domain (Q16665 238-349 limits assumed): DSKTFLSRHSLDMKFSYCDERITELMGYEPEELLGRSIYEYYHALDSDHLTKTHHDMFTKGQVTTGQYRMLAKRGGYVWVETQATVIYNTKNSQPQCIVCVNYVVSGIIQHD
Description: The impact of these substitutions on the binding affinity was then assessed by MST.
An aliquot of labelled HIF-1α PAS-B was thawed on ice and diluted to 50 nM with HIF MST assay buffer, before being centrifuged at 12,000 rpm for 15 minutes. […] Samples were loaded into NanoTemper® Monolith NT.115 premium treated capillaries and measurements were carried out using a Monolith NT.115 system at 25° C. using 50% MST power and 50% LED power. Data was analysed by NanoTemper® analysis software. Binding curves were fitted using GraphPad Prism 8 software.

[2] = target: HIF-1 three-domain protein binding to FAM-HRE; experiment: Fluorescence polarization assay of HIF-1 binding to FAM-HRE; format: biochemical; settings: for IC50: FP assay, read-out: IC50 of inhibition of HIF DNA (FAM-HRE) binding
Description: (§2) HIF-1 three-domain protein was thawed on ice and diluted to 150 nM in HIF FP buffer. Compounds for analysis were serially diluted in DMSO to give 10× stocks. The compounds (10 μL, 100% DMSO) were then added to the protein (80 μL). The samples were then incubated at room temperature for 30 minutes. FAM-HRE (10 μL, 20 nM) was then added and the samples loaded into a 384 well solid black non-binding microplate (Corning, USA). The fluorescence polarization of each well was then measured using gain and focus settings optimized by the used software set to a signal of 400 mP on a control well.
An FP assay utilizing a FAM labelled HRE was used and CK-NL-F(CF3)IF(Br) assessed.
as §2, with “compounds (10 μl, 100% DMSO)” for “compounds (10 μL, 100% DMSO)”

[3] = tested on: HIF-1a driven transcription in U2OS HRE readout cell line; experiment: U2OS HRE readout assay (EYFP expression); format: cell-based
[4] = target: T1, HIF-1α PAS-B domain mutant C337A (Homo sapiens, UniProt Q16665, C337A); experiment: MST binding to cysteine mutant HIF-1α PAS-B C337A; settings: site-directed mutagenesis
T1 construct: made in house
T1 sequence (Q16665 238-349 C337A limits assumed): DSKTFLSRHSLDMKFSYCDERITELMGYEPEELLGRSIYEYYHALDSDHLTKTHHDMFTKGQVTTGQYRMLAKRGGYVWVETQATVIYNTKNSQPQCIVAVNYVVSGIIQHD
Description: (§3) One rationalization would be that the peptide binding is disulphide-mediated. Whilst this was thought to be unlikely as all assays were performed in the presence of the reducing agent TCEP, it was decided that the possibility would be further investigated via site-directed mutagenesis (SDM). The three cysteine residues within the HIF-1α PAS-B domain were sequentially mutated to alanine. The affinity of cyclo-CLLFVY for the resultant mutant proteins C255A, C344A and C337A was then assessed by MST.
(§4) An aliquot of labelled HIF-1α PAS-B was thawed on ice and diluted to 50 nM with HIF MST assay buffer, before being centrifuged at 12,000 rpm for 15 minutes. The compound was then serially diluted in DMSO to give 10× stocks. These were then diluted 1:5 in HIF MST assay buffer to give 2× stocks, before finally being mixed 1:1 (v/v) with the labelled protein to give a final concertation of 25 nM protein and a final DMSO content of 10%. Samples were loaded into NanoTemper® Monolith NT.115 premium treated capillaries and measurements were carried out using a Monolith NT.115 system at 25° C. using 50% MST power and 50% LED power. Data was analysed by NanoTemper® analysis software. Binding curves were fitted using GraphPad Prism 8 software.

[5] = target: T2, HIF-1α PAS-B domain mutant C255A (Homo sapiens, UniProt Q16665, C255A); experiment: MST binding to cysteine mutant HIF-1α PAS-B C255A; settings: site-directed mutagenesis
T2 construct: made in house
T2 sequence (Q16665 238-349 C255A limits assumed): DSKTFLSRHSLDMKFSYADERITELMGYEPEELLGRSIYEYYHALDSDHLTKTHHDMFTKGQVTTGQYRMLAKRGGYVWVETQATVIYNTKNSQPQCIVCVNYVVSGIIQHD
Description: as §3, §4

[6] = tested on: HIF-1α PAS-B domain mutant C344A; experiment: MST binding to cysteine mutant HIF-1α PAS-B C344A; settings: site-directed mutagenesis
Description: as §3, §4

[7] = tested on: HIF-1a driven transcription in Panc HRE readout cell line; experiment: Panc HRE readout cell line (EYFP expression); format: cell-based
[8] = target: T3, His-HIF-1α PAS-B domain with FLAG-HIF-1β PAS-B domain (Homo sapiens, UniProt Q16665); experiment: ELISA of HIF-1α PAS-B / HIF-1β PAS-B heterodimerization; format: biochemical; settings: read-out: IC50 of disruption of HIF-1α-HIF-1β PAS-B-PAS-B dimer formation
T3 construct: heterodimerization of His-HIF-1α PAS-B domain with FLAG-HIF-1β PAS-B domain analysed by ELISA
T3 sequence (Q16665 238-349 limits assumed): as the sequence (Q16665 238-349 limits assumed) above
Description: FIG. 9‥Effects of (CONC) CK-n-leu-F(CF3)IF(Br) [SEQ ID NO: 40 Cys lys NL phe(CF3) ile phe(Br)] on the heterodimerization of His-HIF-1α PAS-B domain with FLAG-HIF-1β PAS-B domain analysed by ELISA.
The ability of CK-n-leu-F(CF3)IF(Br) to disrupt the HIF-1α-HIF-1β PAS-B-PAS-B PPI was then assessed via an ELISA assay.
To each well of a clear Pierce nickel coated 96-well plate (Thermo Scientific), purified Hiss-HIF-1α PAS-B protein in HIP buffer was added (25 μL, 0.1 μM), the plate was then incubated for 1 hr at RT with rocking. The wells were then washed 2× with HIF buffer (150 μL) and 1× with PBS Tween (0.05% Tween 20, 150 μL). 2% milk in PBS Tween (150 μL) was then added to each well and incubated for 1 hr at RT with rocking as a blocking step. The wells were then washed 2×PBS Tween (150 μL) and 1× with HIF buffer (150 μL). For HIF-B dimerisation a serial dilution of HIF-1β PAS-B ranging from 250 μM to 11 nM in HIF buffer (100 μL) was then added. […] The plate was then incubated at RT for 1 hr with rocking. The wells were then washed 2× with HIF buffer (150 μL) and 1× with PBS Tween (150 μL), A 1:1000 dilution of mouse anti-flag antibody in 2% milk PBS Tween (50 μL) was then added to each well and the plate incubated for a further hour at RT with rocking. […] H2SO4(aq) (2 M, 100 μL) was then added to each well and the absorbance at 450 nm determined on a BMG Clariostar plate reader.

[9] = Cytotox-Glo toxicity assay; format: cell-based; settings: doses 50 uM

Which “effect on HIF-1α nuclear localization” value [1] does the source give for `CC(C)C[C@@H]1NC(=O)[C@H](CS)NC(=O)[C@H](Cc2ccc(O)cc2)NC(=O)[C@H](C(C)C)NC(=O)[C@H](CCc2cc(=O)oc3cc(O)ccc23)NC(=O)[C@H](CC(C)C)NC1=O` [CLL-Cou-VY, Cys Leu Leu Cou Val Tyr] here?
Its value is “preventing HIF-1α nuclear localization”.

What about the internalization in cells (HeLa cells) of the same molecule?
The internalization in cells was “internalized”.

Which “binding affinity by MST, in words” value (HIF-1α PAS-B domain) does the source give for `NC(CCS)C(=O)O` (centres unmarked) [homocysteine, h-cys leu leu phe val tyr] here?
The value was “comparable affinities”.

Which IC50 [2] does the source give for `CC(C)C[C@@H]1NC(=O)[C@H](CS)NC(=O)[C@H](Cc2ccc(Br)cc2)NC(=O)[C@H](C(C)C)NC(=O)[C@H](Cc2ccc(C(F)(F)F)cc2)NC(=O)[C@H](CC(C)C)NC1=O` [CLLF(CF3)IF(Br), Cys leu leu phe(CF3) ile phe(4-Br)] here?
Its IC50 is 11.8 ± 1.1 µM.

And the “binding affinity by MST, in words” value (HIF-1α PAS-B domain)?
Its value is “best affinity”.

For `CC(C)C[C@@H]1NC(=O)[C@H](CC(C)C)NC(=O)[C@@H](CS)NC(=O)[C@H](Cc2ccc(O)cc2)NC(=O)[C@H](C(C)C)NC(=O)[C@H](Cc2ccccc2)NC1=O` [D-cysteine, d-cys leu leu phe val tyr], which “binding affinity by MST, in words” value (HIF-1α PAS-B domain) is on record?
The value was “comparable affinities”.

With `CCCC[C@@H]1NC(=O)[C@H](CC(C)C)NC(=O)[C@H](CS)NC(=O)[C@H](Cc2ccc(Br)cc2)NC(=O)[C@H]([C@@H](C)CC)NC(=O)[C@H](Cc2ccc(O)cc2)NC1=O` [CL-n-leu-F(CF3)IF(Br), Cys leu n-leu phe(CF3) ile phe(4-Br)] (cyclo(CL[Nle]YI[Phe(4-Br)])) as the molecule, how does the “expression of EYFP” value [3] read?
Its value is “inhibited the expression of EYFP”.

Which “fold improvement in affinity compared to the parent peptide CLLFVY” value (HIF-1α PAS-B domain; MST Kd relative to CLLFVY) does the source give for `CC(C)C[C@@H]1NC(=O)[C@H](CS)NC(=O)[C@H](Cc2ccc(O)cc2)NC(=O)[C@H](C(C)C)NC(=O)[C@H](Cc2ccc3ccccc3c2)NC(=O)[C@H](CC(C)C)NC1=O` [Nal, Cys leu leu Nal val tyr] here?
Its value is 6 fold.

With `CC(C)C[C@@H]1NC(=O)[C@H](CS)NC(=O)[C@H](Cc2ccc(O)cc2)NC(=O)[C@H](C(C)C)NC(=O)[C@H](Cc2ccccc2)NC(=O)[C@H](CC(C)C)NC1=O` [CLLFVY, Cys leu leu phe val tyr] as the molecule, how does the “binding activity for mutant protein C337A” value [4] read?
Its value is “binding activity is retained”.

And the “binding activity for mutant protein C255A” value [5]?
The value was “binding activity is retained”.

What about the “binding activity for mutant protein C344A” value [6] of the same molecule?
The value was “binding activity is retained”.

What about the IC50 [2] of the same molecule?
The IC50 was 76.5 ± 8 µM.

Which results are given for `CCCC[C@@H]1NC(=O)[C@H](CCCCN)NC(=O)[C@H](CS)NC(=O)[C@H](Cc2ccc(Br)cc2)NC(=O)[C@H]([C@@H](C)CC)NC(=O)[C@H](Cc2ccc(C(F)(F)F)cc2)NC1=O` [CK-n-leu-F(CF3)IF(Br), Cys lys n-leu phe(CF3) ile phe(4-Br)] (cyclo(CK[Nle][Phe(4-CF3)]I[Phe(4-Br)]))?
expression of EYFP [7]: inhibited the expression of EYFP; IC50 [8]: 27.7 ± 14 µM; compatibility with FP assay / direct binding to FAM-HRE ([2]; peptide itself with FAM labelled HRE): bind to the FAM-HRE directly; toxicity [9]: not toxic; Kd (HIF-1α PAS-B domain; MST, HIF-1α PAS-B domain): 1.66 ± 0.3 µM
